Legend:
[1] = target: Recombinant human PAI-1 (Homo sapiens, UniProt P05121); test: Plasma clot lysis assay for testing of PAI-1 inhibitors; type: biochemical; settings: clot lysis in platelet-poor plasma (50%), PAI-1 10-13 ng/mL, t-PA 34 ng/mL, 37° C.; IC50 = concentration at which a halving of the clot lysis time was reached
Protocol: Plasma Clot Lysis Assay for Testing of PAI-1 Inhibitors
CaCl2, p.a. Stock solution 0.1 M in water.
PAI-1 inhibitors dissolved in 100% DMSO.
Clot Lysis in Platelet-Poor Plasma
Blood from healthy fat-fasting volunteers was collected into 0.13 M trisodium citrate, 9 parts blood to 1 part anticoagulant. The tubes were centrifuged at 2000×g, 20 min, at RT. The supernatant, ie, the platelet poor plasma was pooled, aliquoted and frozen at −85° C. until used. At the day of experiment the plasma was thawed in a water bath and temperated to 37° C. All other constituents, except t-PA, were prewarmed to 37° C. To each well on a microtiter plate, 25 μL CaCl2, 25 μL PAI-1 or 25 μL PAI-1 vehicle, 20 μL saline and 5 μL drug or 5 μL vehicle (100% DMSO) were added. Plasma was mixed with cold t-PA solution in the relation 4 parts plasma with 1 part t-PA, just before adding 125 μL of this mixture to each well. The final concentration was 12.5 mM for CaCl2, 10-13 ng/mL for PAI-1, 34 ng/mL for t-PA, and the compounds were tested at a final concentration range 0.1 nM to 0.25 mM. The final plasma concentration was 50%, as a result of the different additives. The plate, covered with a plastic lid, was placed in a Microplate reader (Molecular Devices, US) and gently shaken. The change in turbidity was immediately monitored as a change in absorbance at 405 nm at 37° C. Data points were collected at intervals of 2 min, during a period of 10 h. After finished reading, the absorbance data were transformed into files containing the time and absorbance values for each well. The clot longevity, ie, the time the clot exists, was determined as the time between clot formation, ie, positive Vmax, and clot lysis, ie, negative Vmax. The effect of the drugs, ie, shortening of the longevity for the clot, was expressed as the concentration at which a halving of the clot lysis time was reached, the IC50 (pIC50=−log IC50). Control clot lysis time, set to 100%, was determined in the presence of PAI-1, and the maximal effect, ie, the shortest lysis time that can be reached under defined conditions in this system, in the absence of PAI-1 was set to 0%.
Compounds having a pIC50 higher than 4 were considered as being active.

[2] = target: T1, Aβ 1-40 (Homo sapiens, UniProt P05067); test: Aβ aggregation assay for testing of inhibition of amyloid fibril formation (Thioflavin T fluorescence); type: biochemical; settings: 100 μM Aβ 1-40, 5% DMSO, 37° C., 24 hours; FIG. 1
T1 construct: Lyophilized Aβ 1-40 was dissolved to 500 μM in 4 mM NaOH and divided in two parts
T1 sequence (P05067 672-711): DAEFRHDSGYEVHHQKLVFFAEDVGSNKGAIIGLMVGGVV
Protocol: Effect of test substances on aggregation of Aβ 1-40 was measured by detecting fluorescence of added Thioflavin T (ThT). The ThT-fluorescence of Aβ 1-40 aggregated in the presence of the indicated substances was compared to the ThT-fluorescence of Aβ 1-40 aggregated in the presence of 5% DMSO.
Aβ Aggregation Assay for Testing of Inhibition Amyloid Fibril Formation
Lyophilized Aβ 1-40 was dissolved to 500 μM in 4 mM NaOH and divided in two parts. One part was diluted to 20 μM in PBS (50 mM phosphate buffer pH 7.4 containing 100 mM NaCl) and coated onto an ELISA 96-well plate (Costar) for 1 h at room temperature. The plate was washed in PBS to remove unbound Aβ 1-40. Substances (in DMSO) were diluted with PBS to different concentrations in the Aβ 1-40 coated ELISA plate. The second part of NaOH-solubilized Aβ 1-40 was thereafter added to each well to yield a final concentration of 100 μM Aβ 1-40 and 5% DMSO. The plate was incubated at 37° C. with agitation (600 rpm) for 24 hours to allow aggregation of Aβ 1-40.
The Aβ-substance mix was after aggregation diluted 10 times with 25 μM Thioflavin T (ThT) in PBS. The ThT-fluorescence was detected immediately by excitation at 450 nm and emission at 482 nm. The ThT-fluorescence of Aβ 1-40 aggregated with substances was compared to the ThT-fluorescence of Aβ 1-40 aggregated in the presence of 5% DMSO.

Chain of Recombinant human PAI-1 (P05121 24-402): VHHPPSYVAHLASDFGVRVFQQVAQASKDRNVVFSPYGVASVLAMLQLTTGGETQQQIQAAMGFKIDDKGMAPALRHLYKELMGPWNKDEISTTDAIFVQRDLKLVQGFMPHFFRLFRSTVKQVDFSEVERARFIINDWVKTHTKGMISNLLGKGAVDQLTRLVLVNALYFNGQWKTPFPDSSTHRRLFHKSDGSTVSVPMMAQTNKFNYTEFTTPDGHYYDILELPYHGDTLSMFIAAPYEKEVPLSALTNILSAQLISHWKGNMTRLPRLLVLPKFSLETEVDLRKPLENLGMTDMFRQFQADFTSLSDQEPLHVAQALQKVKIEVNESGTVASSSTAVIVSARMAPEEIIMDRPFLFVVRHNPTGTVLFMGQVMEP

SMILES	IC50 [1] [µM]	Effect on aggregation of Aβ 1-40 (ThT-fluorescence compared to 5% DMSO) [2]
CC(C)Cc1n[nH]c2c(=O)n3c(c(-c4cccc(C(F)(F)F)c4)c12)SC[C@H]3C(=O)O [Example 21, (7R)-3-isobutyl-9-oxo-4-[3-(trifluoromethyl)phenyl]-1,6,7,9-tetrahydropyrazolo[4,3-d][1,3]thiazolo[3,2-a]pyridine-7-carboxylic acid]	25.1	interfere with the formation of amyloid fibrils
CCCc1n[nH]c2c(=O)n3c(c(-c4cccc(C(F)(F)F)c4)c12)SC[C@H]3C(=O)O [Example 22, (7R)-9-oxo-3-propyl-4-[3-(trifluoromethyl)phenyl]-1,6,7,9-tetrahydropyrazolo[4,3-d][1,3]thiazolo[3,2-a]pyridine-7-carboxylic acid]	20	
COc1ccc(C2=NN=C3C(=O)N4C(SC[C@H]4C(=O)O)C(c4ccccc4)=C32)cc1 (stereo partly drawn) [Example 39, (7R)-6,7-dihydro-3-(4-methoxyphenyl)-4-phenyl-pyrazolo[4,5-d]thiazolo[3,2-a]pyridine-9-one-7-carboxylic acid]		interfere with the formation of amyloid fibrils
CCCCCCc1n[nH]c2c(=O)n3c(c(-c4ccc(F)c(F)c4)c12)SC[C@H]3C(=O)O [Example 28, (7R)-4-(3,4-difluorophenyl)-3-hexyl-9-oxo-1,6,7,9-tetrahydropyrazolo[4,3-d][1,3]thiazolo[3,2-a]pyridine-7-carboxylic acid]	50.1	
CCCCCCc1n[nH]c2c(=O)n3c(c(-c4cccc(C(F)(F)F)c4)c12)SC[C@H]3C(=O)O [Example 25, (7R)-3-hexyl-9-oxo-4-[3-(trifluoromethyl)phenyl]-1,6,7,9-tetrahydropyrazolo[4,3-d][1,3]thiazolo[3,2-a]pyridine-7-carboxylic acid]	12.6	
CCCCCc1n[nH]c2c(=O)n3c(c(-c4cccc(C(F)(F)F)c4)c12)SC[C@H]3C(=O)O [Example 23, (7R)-9-oxo-3-pentyl-4-[3-(trifluoromethyl)phenyl]-1,6,7,9-tetrahydropyrazolo[4,3-d][1,3]thiazolo[3,2-a]pyridine-7-carboxylic acid]	15.8	
CC(C)CC1=NN=C2C(=O)N3C(SC[C@H]3C(=O)O)C(c3ccccc3)=C12 (stereo partly drawn) [Example 37, (7R)-6,7-dihydro-3-isobutyl-4-phenyl-pyrazolo[4,5-d]thiazolo[3,2-a]pyridine-9-one-7-carboxylic acid]		interfere with the formation of amyloid fibrils
CCCCCCc1n[nH]c2c(=O)n3c(c(-c4ccc(F)c(F)c4)c12)SC[C@H]3C(=O)NS(=O)(=O)c1ccccc1 [Example 29, (7R)-4-(3,4-difluorophenyl)-3-hexyl-9-oxo-N-(phenylsulfonyl)-1,6,7,9-tetrahydropyrazolo[4,3-d][1,3]thiazolo[3,2-a]pyridine-7-carboxamide]	6.31	
CCn1nc(CC(C)C)c2c(-c3cccc(C(F)(F)F)c3)c3n(c(=O)c21)[C@H](C(=O)O)CS3 [Example 27, (7R)-1-ethyl-3-isobutyl-9-oxo-4-[3-(trifluoromethyl)phenyl]-1,6,7,9-tetrahydropyrazolo[4,3-d][1,3]thiazolo[3,2-a]pyridine-7-carboxylic acid]	79.4	
O=C(O)[C@@H]1CSc2c(-c3cccc(C(F)(F)F)c3)c3cn[nH]c3c(=O)n21 [Example 24, (7R)-9-oxo-4-[3-(trifluoromethyl)phenyl]-1,6,7,9-tetrahydropyrazolo[4,3-d][1,3]thiazolo[3,2-a]pyridine-7-carboxylic acid]	25.1	
